Consider one compound from patent US3962445A, “Anti-allergenic carbostyril derivatives” (Beecham Group Limited, priority 1973, dated 1976).

The assay has as its system PCA response. In words: rat Passive Cutaneous Anaphylaxis Test (PCA test). The class given is in vivo, rat (male Wistar). The following applies: subcutaneous, as sodium salt. How it is done:
Some of the 4-hydroxycarbostyrils prepared in the preceding examples were tested in the rat Passive Cutaneous Anaphylaxis Test (PCA test), described below. They were administered as their sodium salts either in pH 7.2 phosphate buffer (for soluble salts) or as a suspension in 1% methyl cellulose (for insoluble salts).
Male Wistar rats of 250-300g, were injected intraperitoneally with 0.5 ml. of Bordatella pertussis vaccine (containing 4 × 10^10 dead organism per ml) and subcutaneously with 0.5 ml. of an emulsion of 100 mg. of ovalbumin in 2 ml of saline and 3 ml. of incomplete Freunds' adjuvant. Rats were bled by cardiac puncture on day 18, the blood was pooled and separated and serum stored at -20° and thawed only once before use.
0.1 ml of each of six twofold serial dilutions of the serum in 0.9% saline were injected intradermally into separate sites on the shaved dorsal surface of 250-350 g. Male Wistar rats. 72 hours later the animals were challenged by i v injection of 0.3 ml. of 1% ovalbumin mixed with 0.1 ml of a 5% solution of pontamine sky blue dye both in isotonic saline buffered with pH. 7.2 Sorenson buffer (P P S ) The rats were killed after 20 minutes and the diameter of the blue wheals at the antibody injection sites were measured. The starting dilution of the serum was adjusted so that there was no response after challenge, at the site of injection of the highest dilution and a maximum response at the two or three lowest dilutions. Typically, six twofold serial dilutions of the serum 1/4 to […] were used.
Amounts of the compounds were administered to rats by subcutaneous injection, into the nucal region, of a solution of the compound in P.B.S. or as a suspension in 1% methyl cellulose, each amount to a test group of six animals at a specified time prior to intravenous challenge with ovalbumin.
% Inhibition of P.C.A = 100 (1 - a/b)
For those compounds having insoluble sodium salts, the salts were isolated by reaction of the free nitro compound with 2.5N sodium hydroxide and the filtered sodium salt washed free of alkali with water. The dried salts were then administered as a suspension in 1% methyl cellulose.

The mark [1] stands for this setting: 0 h, time 0 mins. prior to i.v. ovalbumin challenge.
Where [2] appears, read: 0.5 h, time 30 mins. prior to i.v. ovalbumin challenge.

As a reminder, the inhibition is the relative decrease from the control value, in per cent.

Regarding `Cc1cc2c(O)c([N+](=O)[O-])c(=O)n(C)c2cc1C` [Example 38, 4-Hydroxy-3-nitro-1,6,7-trimethylcarbostyril], the inhibition at 25 mg/kg by setting is: under setting [1], 13%; under setting [2], 14%. Further, the inhibition at 100 mg/kg turned out to be 53% under setting [1] and 47% under setting [2].
